Data on one compound can be found in patent US20070036717A1, “Chemoradiotherapy with TS-1/camptothecins” (The Kitasato Gakuen Foundation, priority 2005, published 2007).

The structures appear in SMILES notation. Counter-ions that a name gives are not always drawn.

The series can be described thus: Adverse reactions (NCI-CTC Version 2.0), maximum tolerated and recommended dose of CPT-11. Type of series: in vivo, human patients. The settings on record: with TS-1 80 mg/m^2/day and radiation 45 Gy. The procedure:
A Phase I/II clinical study of preoperative chemoradiotherapy with TS-1/CPT-11 was conducted to estimate the maximum tolerated dose (MTD) and recommended dose (RD) of CPT-11. The subjects had cancer of the rectum (excluding the rectosigmoid (Rs)) with a preoperative diagnosis of T3′ (tumors showing invasion through the muscularis propria into the subserosa, or into the nonperitonealized pericolic or perirectal tissues) or T4′ (tumors perforating the visceral peritoneum and/or directly invading other organs or structures), and N0 to N3′. Response rates and safety (percentage of adverse reactions and percentage of complications) were also evaluated with RD administration. (2) Subject selection
Level 1 (CPT-11, 40 mg/m^2) was the starting dose, and dose was titrated until the maximum tolerated dose could be estimated. […]
After the level of the maximum tolerated dose was confirmed, the recommended dose was determined by reducing the 10 mg/m^2 (one level) increments.
Maximum tolerated dose was determined on the basis of the adverse reactions observed during the first week after completing chemotherapy. (Maximum tolerated dose was evaluated in the modality of coadministration with radiation.)
Side effects were evaluated according to the National Cancer Institute Common Toxicity Criteria (Version 2.0; NCI-CTC). Effects not on the NCI-CTC form were scored on the following five-grade scale.

On to `CCc1c2c(nc3ccc(OC(=O)N4CCC(N5CCCCC5)CC4)cc13)-c1cc3c(c(=O)n1C2)COC(=O)[C@]3(O)CC` [CPT-11, (4S)-4a, 11-diethyl-4β-hydroxy-9-[[4-(piperidin-1-yl)piperidin-1-yl]carbonyloxy]1H-pyrano[3′,4′:6,7]indolizino[1,2-b]quinoline-3,14-(4H,12H)dione hydrochloride salt], for which the “final recommended dose of CPT-11” value turned out to be 80 mg/m^2.
